Reference: US12577235B2, “Crystalline form of CXCR2 antagonist and application thereof” (Shenzhen Optimum Biological Technology Co., Ltd, priority 2019, dated 2026)

Legend:
[1] = system: rat COPD model induced by smoking combined with lipopolysaccharide; assay: Anti-inflammation effect in rat COPD model induced by smoking combined with lipopolysaccharide; format: in vivo, SD rats; conditions: Danirixin 30 mpk; crystalline form A 3-30 mpk
Method: Modeling: the animal model was prepared by exposing the rats to cigarette smoke once daily for 14 days. The rats were smoked for 90 min per day in 2 portions with a break of 10 min. 18 Marlboro cigarettes (with a tar content of 11 mg) were given each time. LPS was administered dropwise via airway at 200 μg/rat once weekly. The administration dropwise was performed on days 6 and 13 of smoke exposure (on the day of LPS administration dropwise, only LPS was administered dropwise for modeling without smoke exposure). • 2. Administration: an aqueous solution of 1% DMSO/20% PEG400/79% (HP-b-CD) was used as the vehicle, and the drugs were administrated intragastrically everyday at a volume of 5 mL/kg for 2 weeks. • 3. Endpoint: On day 15, pulmonary function test, sample collection, inflammatory cell count in bronchoalveolar lavage fluid, pathological analysis, and lung tissue MPO and MMP9 assay were carried out. Procedures of Pulmonary Function Test:
After the last smoking and modeling were finished, pulmonary function was tested for each group of animals on the second day, and pulmonary resistance and compliance were detected under stimulation of methacholine chloride at different doses. The animals were anesthetized by intraperitoneal injection with […] of 25% urethane. After the animals were deeply anesthetized, airway intubation was performed by separating airways, and meanwhile, jugular veins were separated. After breathing stably, the animals were put into a plethysmograph. Drug administration pipelines were inserted into the separated jugular veins. After the animals were in rest state for 1-2 min and the breathing curves were stable, then detection was started. Rats were administered with methacholine chloride at doses of 0, 0.0083, 0.025, 0.075, 0.225, 0.675 mg/kg by jugular vein intubation. The increase in airway resistance and decrease in pulmonary compliance were observed after each administration. After 1-2 min, the parameters returned to near the baseline of the previous concentration of methacholine chloride, and methacholine chloride of the next concentration was injected. After the detection was finished, subsequent alveolar lavage and sample collection were performed.
After the pulmonary function test was finished, the rats were sacrificed by cervical dislocation. After the animals were confirmed dead, the lungs were carefully separated, a lavage syringe was inserted into the main trachea and fixed with 2-0 silk thread. The right lung was ligated. 5 mL of low-temperature normal saline was slowly injected through the lavage syringe. The normal saline was slowly extracted after confirming that the normal saline was injected into the left lung. The operation was repeated twice. By the three lavages, a total of 15 mL of normal saline was injected for lavage. The obtained BALF was injected into a 15 mL centrifuge tube and preserved in a storage box at 4° C. for subsequent BALF cells counting.
After BALF was collected, the right lung which was not infused was taken off and weighted. The two upper lobes of the right lung were put into a cryopreservation tube, frozen in a freezer at −80° C. for later use. Lower lobe tissues were fixed in formalin.
1 mL of homogenously mixed BALF was added into 1 mL of a solution of 1% glacial acetic acid in normal saline. Cells were counted using a hemocytometer. The remaining lavage fluid was centrifuged at 1500 r/min for 10 min at 4° C. to give a cell mass. The cells were resuspended in 200 μL of normal saline, uniformly coated on a glass slide and stained by Wright-Giemsa stain. Macrophages, neutrophils and lymphocytes in a total of 200 cells were counted under a microscope, and the proportions of the cells was calculated. For lavage fluid collection, animals failing the lavage fluid collection were not summarized. […]

[2] = system: PPE-induced SD rat COPD model; assay: Therapeutic effect on PPE-induced COPD model; format: in vivo, SD rats; conditions: 30 mpk intragastric daily, 4 weeks
Excerpt: • To test the therapeutic effect of the compound on PPE-induced SD rat COPD model. Materials: • Animals: SD rats (male, 160-180 g, 6 weeks age) • Test compounds: porcine pancreatic elastase (Sigma, 0.068 U/μL); Danirixin, compound 1. • Grouping: 1) vehicle group • 2) COPD model group (porcine pancreatic elastase modeling group/solvent group) • 3) PPE+Danirixin (30 mpk) • 4) PPE+compound 1 (10 mpk) • 5) PPE+compound 1 (30 mpk) Procedures: • 1. Modeling: PPE was given retrolingually. • 2. Administration: an aqueous solution of 1% DMSO/20% PEG400/79% (HP-b-CD) was used as the vehicle, and the drugs were administrated intragastrically everyday at a volume of 2 mL/rat for 4 weeks. • 3. Endpoint: On day 29, pulmonary function test, sample collection, and inflammatory cell count in bronchoalveolar lavage fluid.
Bronchoalveolar lavage: The rats were sacrificed, and dissected at the neck. Trachea intubation was performed. 1 mL of cold […] at 4° C. was infused for 3 lavages, and the lavage fluids were combined. The combined lavage fluids were centrifuged at 1200 rpm/min for 5 min, and the supernatant was discarded. The cell suspension was collected;

CXCR2 = target: T1, CXCR2 (Homo sapiens, UniProt P25025); assay: PathHunter CXCR2 β-arrestin cell assay (CXCL8 agonist, chemiluminescence); format: cell-based; conditions: CXCR2 β-arrestin cells, CXCL8 at EC80
T1 sequence (P25025 1-360): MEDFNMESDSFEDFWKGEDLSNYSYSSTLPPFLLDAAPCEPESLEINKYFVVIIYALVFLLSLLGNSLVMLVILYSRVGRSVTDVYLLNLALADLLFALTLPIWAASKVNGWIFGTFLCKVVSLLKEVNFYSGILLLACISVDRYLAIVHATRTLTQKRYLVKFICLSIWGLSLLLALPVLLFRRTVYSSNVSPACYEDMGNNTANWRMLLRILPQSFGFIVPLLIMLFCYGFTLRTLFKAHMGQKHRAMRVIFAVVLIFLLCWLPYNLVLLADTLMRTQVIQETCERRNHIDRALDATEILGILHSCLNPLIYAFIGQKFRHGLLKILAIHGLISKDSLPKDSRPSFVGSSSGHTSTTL
Method: CXCR2 β-arrestin cells (DiscoverX) of PathHunter® were cultured in standard conditions and inoculated at 20 μL/well to a 384-well white microplate. Before testing, the cells were incubated at 37° C. for an appropriate period of time. The test compound was serially 3-fold diluted in DMSO to give 8 concentrations. Shortly before testing, the serially diluted test samples were further diluted with test buffer to 5 folds of the test concentration. 5 μL of further diluted test samples were added to the cells and the cells were incubated at 37° C. for 30 min. The concentration of vehicle was 1%. 5 μL of 6×EC80 agonist (CXCL8) buffer was then added to the cells, and the cells were incubated at 37° C. for 90 min. The test signal was generated by adding 15 μL (50% v/v) of PathHunter detection mixture reagent in one portion and subsequently incubating the cells for 1 h. The chemiluminescence signal of the microplate was read by a PerkinElmer Envision™ instrument. The biological activities of the test compounds were analyzed by CBIS data analysis kit (ChemInnovation, CA), shown as IC50 values.

[3] = Plasma pharmacokinetic assay in rats; format: in vivo, Lewis rats
Method: In this plasma pharmacokinetic assay, 4 male Lewis rats were used and randomized into two groups, with 2 animals in each group. The animals in the first group were given 2 mg/kg of the test compound by intravenous injection and the animals in the second group were given 10 mg/kg of the test compound by intragastric administration. An aqueous solution of 1% DMSO/20% PEG400/79% (HP-b-CD) was used as the vehicle, and the resulting intravenous and intragastric formulations (adjusted to pH=2.78) were clear solutions. Blood samples were collected from saphenous veins of animals at 0.0830, 0.25, 0.5, 1, 2, 4, 6, 8 and 24 hours post-dose for the intravenous injection group, and at 0.25, 0.5, 1, 2, 4, 6, 8 and 24 hours post-dose for the intragastric administration group, with 3 samples at each time point. Plasma samples of the intragastric administration group were cryopreserved at −80° C. and thawed before LC-MS/MS sample analysis. Acetonitrile containing internal standard was added to the thawed plasma samples at a certain ratio to precipitate proteins.
The mixture was centrifuged, and the supernatant was subjected to analysis by LC-MS/MS. An API4000 or 5500 system equipped with ACQUITY UPLC BEH C18 (2.1×50 mm, 1.7 μm) column and ESI positive or negative ion source was used. Each analysis batch included standard samples with 8 concentrations. A curve of the ratio of the peak areas of the test compound to the internal standard (IS) vs. the concentration of the test compound in the plasma sample was plotted, and linear regression was performed using 1/X^2 as weighting coefficient to give a regression equation between the measured response and the concentration. Each analysis batch also included corresponding quality control samples. Data processing was performed using Phoenix 6.3 WinNonlin® to give corresponding PK parameters.

IC50 (CXCR2)	half-life ([3]; rat, plasma, po, male Lewis rats, 10 mg/kg intragastric, read-out: Intragastric administration Half life (T1/2) (converted))	Cmax ([3]; rat, plasma, po, male Lewis rats, 10 mg/kg intragastric, read-out: Intragastric administration Maximum plasma concentration (Cmax))	AUC ([3]; rat, plasma, po, male Lewis rats, 10 mg/kg intragastric, read-out: Intragastric administration Plasma exposure (AUC))	clearance ([3]; rat, plasma, male Lewis rats, 2 mg/kg intravenous, read-out: Intravenous injection Clearance (CL))	Pharmacokinetic properties (in words) ([3]; rats)	Structure (SMILES)	Anti-inflammatory effect (summary) [1]	Count of immune inflammatory cells (neutrophils, macrophages, lymphocytes) in bronchoalveolar lavage fluid [2]
–	–	–	–	–	–	Cc1c(F)cccc1NC(=O)Nc1ccc(Cl)c(S(=O)(=O)[C@H]2CCCNC2)c1O [Danirixin, reference compound]	significant anti-inflammatory effect	significantly reduced
22 nM	4.22 h	3 µM	31.3 µM·h	5.07 mL/min/kg	good pharmacokinetic properties	O=C(Nc1ccc(Cl)c(S(=O)(=O)[C@H]2CCCNC2)c1O)N[C@@H]1CCCc2cc(C(F)(F)F)oc21 [Compound 1]	–	–
